According to patent US4673747A, “Aminoalkylphenoxy derivatives” (Ikeda Mohando Co., Ltd., priority 1984, dated 1987):

How the values were obtained:
Histamine H2-Receptor = target: T1, Histamine H2-Receptor (Cavia porcellus, UniProt P47747); design: species or system guinea pig (male Hartley); conditions: isolated guinea pig atrium; negative logarithm of molar concentration; heart beats, histamine dose-response; read-out: Antagonistic Action against Histamine H2-Receptor (pA2) Determined by Using Atrium isolated from Guinea Pig (converted)
T1 construct: from tissue; host or cells: isolated atrium of male Hartley guinea pig
Procedure: A male Hartley guinea pig having a body weight of about 400 g was killed by cervical dislocation, and the artrium thereof was isolated and was suspended in an organ bath containing 50 ml of a modified Ringer solution and subjected to a tension of 1 g. The number of heart beats under such condition was recorded using a polygraph.
Initially, from 1×10^-7 mol to 3×10^-4 mol of histamine was allowed to act accumulatively to depict the curve of the dosage-reaction relationship. Likewise, the curve of the dosage of histamine-reaction relationship was depicted in the presence of 5×10^-7 mol to 1×10^-6 mol of the test sample which was injected 3 minutes before. The negative logarithm (pA2) of the molar concentration of the test sample required for moving the curve obtained by single administration of histamine parallel to the right side by a two-times concentration was calculated.

[1] = system: Gastric acid secretion induced by histamine; assay: Inhibition effect on gastric acid secretion induced by histamine in pylorus ligated rat (subcutaneous); assay type: in vivo, rat (male Wistar); conditions: histamine 3 mg/kg SC, average of five runs, * p<0.05, ** p<0.01 vs control group, read-out: Secretion of Gastric Acid in Rat, Inhibition Rate (%); for inhibition in vivo at 0.2 mg/kg: 0.2 mg/kg SC
Procedure: A male Wistar rat having a body weight of about 160 g and which had not fed for 24 hours was anesthetized by an intraperitonea dose of 1.2 g/kg of uretane. After ligating of pylorus and esophagus, the gaster anterior was incised and fitted with a double polyethylene cannula. The wall of the stomach was rinsed with 5 ml of saline at 30 minute intervals, and the quantities of gastric acid contained in each rinsing solution were measured by titration.
The basal acid secretion was initially measured three times, and then 0.2 mg/kg or 0.5 mg/kg of each of the compounds of this invention was administered subcutaneously and 3 mg/kg of histamine was administered subcutaneously after the lapse of an additional 30 minutes.
The quantity of gastric acid secreated after the operation was measured continuously for 3 hours. Within that measurement interval, three time points at which the increase in acid secretion reached a maximum level were selected, and the average quantity of gastric acid secreted at those time points was taken as the increase in acid secretion, which was compared with the increase in acid secretion of the control group to calculate the percent inhibition for secretion of gastric acid. [formula] (The result was shown as the average value of five runs.)

[2] = system: Gastric acid secretion induced by histamine; assay: Inhibitory effect of intraduodenally administered compounds on gastric acid secretion induced by histamine in rat; assay type: in vivo, rat (male Wistar); conditions: intraduodenal, rat; for ED50: 0.5 h, 30 minutes before SC histamine, read-out: Median effective dose (ED50), Gastric Acid Secretion; for Efficacy Ratio relative to Cimetidine (Cimetidine = 1): from ED50; for ED50 value: times as effective as Cimetidine (activity ratio): text discussing Table 2

T1 sequence (P47747 whole entry): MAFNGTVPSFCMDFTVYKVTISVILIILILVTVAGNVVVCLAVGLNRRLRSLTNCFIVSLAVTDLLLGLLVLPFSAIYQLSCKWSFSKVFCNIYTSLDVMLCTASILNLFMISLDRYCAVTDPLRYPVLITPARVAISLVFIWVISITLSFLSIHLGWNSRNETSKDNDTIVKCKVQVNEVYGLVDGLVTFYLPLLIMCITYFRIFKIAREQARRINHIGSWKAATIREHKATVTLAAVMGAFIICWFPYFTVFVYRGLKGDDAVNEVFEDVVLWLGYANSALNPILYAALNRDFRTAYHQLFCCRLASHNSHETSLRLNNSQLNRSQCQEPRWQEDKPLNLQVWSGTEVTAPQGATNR

Compound	Kb (Histamine H2-Receptor)	inhibition in vivo at 0.2 mg/kg [1]	ED50 [2]	Efficacy Ratio relative to Cimetidine (Cimetidine = 1) [2]	inhibition in vivo at 0.5 mg/kg ([1]; 0.5 mg/kg SC)	ED50 value: times as effective as Cimetidine (activity ratio) [2]
O=c1c(NC/C=C\COc2cccc(CN3CCCCC3)c2)c(NCc2ccncc2)c1=O [Ex. 38]	589 nM	98%	0.04 mg/kg	180.0	–	–
Nc1n[s+]([O-])nc1NC/C=C\COc1cccc(CN2CCCC2)c1 (stereo not drawn) [Ex. 17, 3-amino-4-[4-<3-(1-pyrrolidinomethyl)phenoxy>-cis-2-butenylamino]-1,2,5-thiadiazole-1-oxide]	97.7 nM	86%	0.82 mg/kg	8.8	–	–
CNc1nnc(NC/C=C\COc2cccc(CN3CCCCC3)c2)s1 [Ex. 28, 2-methylamino-5-[4-<3-(1-piperidinomethyl)-phenoxy>-cis-2-butenylamino]-1,3,4-thiadiazole]	4680 nM	75%	0.62 mg/kg	11.6	–	–
CNc1n[s+]([O-])nc1NC/C=C\COc1cccc(CN(C)C)c1 (stereo not drawn) [Ex. 22, 3-<4-(3-dimethylaminomethylphenoxy)-cis-2-butenylamino>-4-methylamino-1,2,5-thiadiazole-1-oxide]	316 nM	88%	0.62 mg/kg	11.6	–	–
Nc1nnc(NC/C=C/COc2cccc(CN3CCCCC3)c2)s1 [Ex. 25, 2-amino-5-[4-<3-(1-piperidinomethyl)phenoxy>-trans-2-butenylamino]-1,3,4-thiadiazole]	204 nM	77%	–	–	–	–
Nc1nnc(NC/C=C\COc2cccc(CN3CCCC3)c2)s1 [Ex. 29, 2-amino-5-[4-<3-(1-pyrrolidinomethyl)-phenoxy>-cis-2-butenylamino]-1,3,4-thadiazole]	316 nM	36%	–	–	–	–
CNc1nnc(NC/C=C\COc2cccc(CN3CCCC3)c2)s1 [Ex. 30, 2-methylamino-5-[4-<3-(1-pyrrolidinomethyl)-phenoxy>-cis-2-butenylamino]-1,3,4-thiadiazole]	550 nM	17%	–	–	–	–
Cn1c(NC/C=C/COc2cccc(CN3CCCCC3)c2)cc(N)nc1=O [Ex. 14, 1-methyl-4-amino-6-[4-<3-(1-piperidinomethyl)phenoxy>-trans-2-butenylamino]-(1H)-pyrimidin-2-one]	7080 nM	-9%	–	–	–	–
CC1CCCN(Cc2cccc(OC/C=C\CNc3c(N)c(=O)c3=O)c2)C1 (stereo not drawn) [Ex. 34, 1-amino-2-[4-{3-<1-(3-methylpiperidino)methyl>phenoxy}-cis-2-butenylamino]-1-cyclobutene-3,4-dione]	70.8 nM	100%	0.17 mg/kg	42.1	–	–
CC1CCCCN1Cc1cccc(OC/C=C\CNc2c(N)c(=O)c2=O)c1 (stereo not drawn) [Ex. 33, 1-amino-2-[4-{3-<1-(2-methylpiperidino)-methyl>phenoxy}-cis-2-butenylamino]-1-cyclobutene-3,4-dione]	166 nM	70%	0.4 mg/kg	18.0	–	–
Nc1nnc(NC/C=C\COc2cccc(CN3CCCCC3)c2)s1 [Ex. 27, 2-amino-5-[4-<3-(1-piperidinomethyl)-phenoxy>-cis-2-butenylamino]-1,3,4-thiadiazole]	490 nM	87%	0.45 mg/kg	16.0	–	–
Nc1c(NC/C=C/COc2cccc(CN3CCCCC3)c2)c(=O)c1=O [Ex. 6, 1-amino-2-[4-<3-(1-piperidinomethyl)phenoxy>-trans-2-butenylamino]-1-cyclobuten-3,4-dione]	178 nM	25%	–	–	–	–
CNc1c(NC/C=C/COc2cccc(CN3CCCCC3)c2)c(=O)c1=O [Ex. 7, 1-methylamino-2-[4-<3-(1-piperidinomethyl)phenoxy>-trans-2-butenylamino]-1-cyclobuten-3,4-dione]	513 nM	28%	–	–	–	–
CCCNc1n[s+]([O-])nc1NC/C=C\COc1cccc(CN2CCCCC2)c1 (stereo not drawn) [Ex. 20, 3-n-propylamino-4-[4-<3-(1-piperidinomethyl)phenoxy>-cis-2-butenylamino]-1,2,5-thiadiazol-1-oxide]	389 nM	88%	0.58 mg/kg	9.0	–	–
CNc1nnc(NC/C=C/COc2cccc(CN3CCCCC3)c2)s1 [Ex. 26, 2-methylamino-5-[4-<3-(1-piperidinomethyl)-phenoxy>-trans-2-butenylamino]-1,3,4-thiadiazole]	9550 nM	45%	–	–	–	–
CN(C)Cc1cccc(OC/C=C\CNc2n[s+]([O-])nc2N)c1 (stereo not drawn) [Ex. 21, 3-<4-(3-dimethylaminomethylphenoxy)-cis-2-butenylamino>-4-amino-1,2,5-thiadiazole-1-oxide]	229 nM	99%	2 mg/kg	3.6	–	–
Nc1n[s+]([O-])nc1NC/C=C\COc1cccc(CN2CCCCC2)c1 (stereo not drawn) [Ex. 15]	437 nM	–	0.066 mg/kg	109.1	98%	~110 times
Nc1n[nH]c(=O)nc1NC/C=C/COc1cccc(CN2CCCCC2)c1 [Ex. 11, 6-amino-5-[4-<3-(1-piperidinomethyl)phenoxy>-trans-2-butenylamino]-1,2,4-triazin-3-one]	661 nM	88%	0.44 mg/kg	16.4	–	–
CC(C)Nc1n[s+]([O-])nc1NC/C=C\COc1cccc(CN2CCCCC2)c1 (stereo not drawn) [Ex. 19, 3-isopropylamino-4-[4-<3-(1-piperidinomethyl)phenoxy>-cis-2-butenylamino]-1,2,5-thiadiazole-1-oxide]	2400 nM	82%	0.88 mg/kg	8.2	–	–
NC1=NS(=O)(=O)N=C1NC/C=C\COc1cccc(CN2CCCCC2)c1 [Reference Ex. 1, 3-amino-4-[4-<3-(1-piperidinomethyl)phenoxy>-cis-2-butenylamino]-1,2,5-thiadiazole-1,1-dioxide, reference compound]	–	–	0.2 mg/kg	36.0	–	36 times
O=c1c(NC/C=C\COc2cccc(CN3CCCCC3)c2)c(NCc2cccnc2)c1=O [Ex. 37, 1-(3-pyridylmethylamino)-2-[4-<3-(1-piperidinomethyl)phenoxy>-cis-2-butenylamino]-1-cyclobutene-3,4-dione]	646 nM	90%	0.074 mg/kg	97.3	–	–
C#CCNc1c(NC/C=C\COc2cccc(CN3CCCCC3)c2)c(=O)c1=O [Ex. 4, 1-(2-propagylamino)-2-[4-<3-(1-piperidinomethyl)phenoxy>-cis-2-butenylamino]-1-cyclobuten-3,4-dione]	776 nM	66%	–	–	–	–
Nc1c(NC/C=C\COc2cccc(CN3CCCC3)c2)c(=O)c1=O [Ex. 8, 1-amino-2-[4-<3-(1-pyrrolidinomethyl)phenoxy>-cis-2-butenylamino]-1-cyclobuten-3,4-dione]	151 nM	88%	0.07 mg/kg	10.3	–	–
CNC1=NS(=O)(=O)N=C1NC/C=C\COc1cccc(CN2CCCCC2)c1 [Reference Ex. 2, 3-methylamino-4-[4-<3-(1-piperidinomethyl)phenoxy>-cis-2-butenylamino]-1,2,5-thiadiazole-1,1-dioxide, reference compound]	–	–	0.44 mg/kg	16.4	–	16 times
CNc1nn(C)c(=O)nc1NC/C=C/COc1cccc(CN2CCCCC2)c1 [Ex. 12, 2-methyl-6-methylamino-5-[4-<3-(1-piperidinomethyl)phenoxy>-trans-2-butenylamino]-1,2,4-triazin-3-one]	1510 nM	44%	–	–	–	–
